Assay results published in US9114086B2, “Coated tablets of eszopiclone” (Sunovion Pharmaceuticals Inc., priority 2009, dated 2015).

Experiments:
[1] = Sample solution stability (short term), HPLC-MS/MS method validation; type: physicochemical; settings: stored at room temperature
Description: Described herein are instantaneous dissolution methods comprising a step using a LC/MS/MS technique to measure the concentration of the active ingredient in the instantaneous dissolution solution. Specifically, the LC/MS/MS procedure includes: centrifuge samples from above instantaneous dissolution solution at 6000×g for 5 minutes (if sample appears cloudy) to obtain clear solution; take out supernatant or clear solution and load into HPLC auto samplers. If the concentration of the active ingredient is above the upper calibration range (100 ng/mL), the sample solution will go through further dilution, for instance, by pipetting 100 μL of the centrifuged sample solution into 4.9 mL of sample diluents; If dilution sample is still above the calibration range, a serial dilution can be made with the dilution solution containing Internal Standard. Final diluted sample concentration should fall into the calibration range.
A summary of the HPLC-MS/MS method validation results can be found in the table below: […]

[2] = Instantaneous dissolution of coated tablets in 5% human saliva solution, LC/MS/MS; type: physicochemical
Text: A typical procedure for preparing the instantaneous dissolution solutions of coated tablets is described as follows: a tablet comprising a core and a film coating—in this case a coated eszopiclone tablet—is randomly selected, and then placed into a basket sinker (e.g., Hanson Research Part # ENMISC, BSK008-JP 8 mesh, 0.76″ L×0.41″ W) with long handle (made from stainless steel tubing). The basket is then immersed in dissolution diluent (e.g., 5% human saliva solution) in vial 1 for 2-5 seconds, then moved to vial 2 for 2-5 seconds dipping and so on with the same tablet. The dissolution diluents (e.g., 5% human saliva solution in water) can be prepared by mixing thoroughly about 50 mL of normal human saliva and about 950 mL of water in a suitable container. About 5 mL of the 5% human saliva solution is then pipetted into several scintillation vials (approximately 20 mL volume). This procedure has been employed with tablets coated with about 2-4% coating by weight
Alternatively, the dipping experiment described above may be carried out by immersing the tablet in the basket in dissolution diluents (e.g., about 5% human saliva solution in water) in vial 1, moving the basket up and down for about 2-5 seconds at a speed of approximate 1 dip every two seconds; remove the basket from the diluent; take a sample of the diluent; re-immerse the tablet in the same vial. Continue the experiment similarly to collect samples until the tablet disintegrates or the preselected time course is completed, whichever comes first. In this embodiment, a new tablet is used in each vial. The experiment is repeated as described for additional nine or ten tablets (total of 10 tablets). The concentration of active ingredient, e.g., eszopiclone, in the sample solutions is then determined using LC/MS/MS (ESI mode, positive MRM scan type). The dissolution instantaneous profile of the tablets is constructed by plotting logarithmic concentration of eszopiclone versus time in seconds.
Another typical procedure for preparing the instantaneous dissolution solutions of coated tablets is described as follows: a number of tablets comprising a core and a film coating—in this case coated eszopiclone tablets—are transferred into basket sinkers and into a series of vials containing the dissolution diluents. The basket is then immersed in dissolution diluents (e.g., 5% human saliva solution in water) in vial 1 for 5 seconds, in vial 2 for 10 seconds, in vial 3 for 15 seconds dipping and so on with the series of tablets. The dissolution diluents (e.g., 5% human saliva solution in water) can be prepared by mixing thoroughly 50 mL of normal human saliva and 950 mL of water in a suitable container. About 5 mL of the 5% human saliva solution is then pipetted into several scintillation vials (approximately 20 mL volume). This procedure has been employed with tablets coated with 3-8% coating by weight.
In each scenario above, the concentration of core material, e.g., eszopiclone, the active ingredient in the sample solutions, is determined using LC/MS/MS (ESI mode, positive MRM scan type). The dissolution instantaneous profile of the tablets is constructed by plotting logarithmic concentration of eszopiclone versus time in seconds.
Described herein are instantaneous dissolution methods comprising a step using a LC/MS/MS technique to measure the concentration of the active ingredient in the instantaneous dissolution solution. Specifically, the LC/MS/MS procedure includes: centrifuge samples from above instantaneous dissolution solution at 6000×g for 5 minutes (if sample appears cloudy) to obtain clear solution; take out supernatant or clear solution and load into HPLC auto samplers. […]

Compound: CN1CCN(C(=O)O[C@H]2c3nccnc3C(=O)N2c2ccc(Cl)cn2)CC1 [Eszopiclone, (S)-(6-(5-chloro-2-pyridyl)-5-[(4-methyl-1-piperazinyl)carbonyloxy]-7-oxo-6,7-dihydro-5H-pyrrolo[3,4-b]pyrazine)]
- Sample solution stability (short term) [1]: Sample solutions are stable for 8 hours
- Mean, % dissolved results ([2]; Time 5 seconds): 5.317%
- Mean, % dissolved results ([2]; Time 10 seconds): 6.875%
- Mean, % dissolved results ([2]; Time 15 seconds): 7.461%
- Mean, % dissolved results ([2]; Time 20 seconds): 14.144%
- Mean, % dissolved results ([2]; Time 25 seconds): 12.222%
- Mean, % dissolved results ([2]; Time 30 seconds): 16.625%
- Mean, % dissolved results ([2]; Time 35 seconds): 22.404%
- Mean, % dissolved results ([2]; Time 40 seconds): 14.658%
- Mean, % dissolved results ([2]; Time 45 seconds): 14.989%
- Mean, % dissolved results ([2]; Time 50 seconds): 12.477%
